Experimental data taken from patent publication US20160024098A1, “HYBRID NECROPTOSIS INHIBITORS” (PRESIDENT AND FELLOWS OF HARVARD COLLEGE, priority 2013, published 2016).

System: FADD-deficient Jurkat cells
Test: necroptosis assay (TNF-α-induced necroptosis, CellTiter-Glo ATP-based viability)
Format: cell-based
Settings: FADD-deficient Jurkat cells treated with 10 ng/ml human TNFalpha for 24 hr, eleven concentrations
Experimental: Evaluation of necroptosis inhibitory activity can be performed using a FADD-deficient variant of human Jurkat T cells treated with TNF-α as previously described (Degterev et al., Nat. Chem. Biol. 1:112 (2005) and Jagtap et al., J. Med. Chem. 50: 1886 (2007)). For EC50 value determinations, cells can be treated with 10 ng/mL of human TNF-α in the presence of increasing concentration of test compounds for 24 hours followed by ATP-based viability assessment.
ATP-based viability assessment: Briefly, necroptosis activity can be performed using a FADD-deficient variant of human Jurkat T cells treated with TNF-α. For EC50 value determinations, cells (500,000 cells/mL, 100 μL per well in a 96-well plate) can be treated with 10 ng/mL of human TNF-α in the presence of increasing concentration of test compounds for 24 hours at 37° C. in a humidified incubator with 5% CO2 followed by ATP-based viability assessment. Stock solutions (30 mM) in DMSO can be prepared and then diluted with DMSO to give testing solutions, which were added to each test well. The final DMSO concentration can be 0.5%. Eleven compound test concentrations (0.030-100 μM) can be used, and each concentration can be done in duplicate.
Cell viability assessments can be performed using a commercial luminescent ATP-based assay kit (CellTiter-Glo, Promega, Madison, Wis.) according to the manufacturer's instructions. Briefly, 40 μL of the cell lysis/ATP detection reagent can be added to each well. Plates can be incubated on a rocking platform for 10 minutes at room temperature and luminescence was measured using a Wallac Victor 3 plate-reader (Perkin Elmer, Wellesley, Mass.). Cell viability can be expressed as a ratio of the signal in the well treated with TNF-α and compound to the signal in the well treated with compound alone in order to account for nonspecific toxicity. EC50 values can be calculated using nonlinear regression analysis of sigmoid dose-response (variable slope) curves from plots of log [I] verses viability values.
For necroptosis assay, FADD-deficient Jurkat cells were treated with 10 ng/ml human TNFalpha for 24 hr, followed by CellTiter-Glo viability assay (Promega). EC50 values were calculated using non-linear regression in GraphPad Prism software. Eleven concentrations of each compound were tested to generate dose response curves.

Row | SMILES | EC50 [nM] | EC50, nM in necroptosis assay
1 | Cc1ccc(C(=O)NCCN2C(=O)NC(Cc3c[nH]c4c(Cl)cccc34)C2=O)cc1C#Cc1cnc2cccnn12 (stereo not drawn) [Compound (1)] | 200 | 
2 | Cc1ccc(C(=O)NCCN2C(=O)NC(Cc3c[nH]c4c(Cl)cccc34)C2=O)cc1C#Cc1cnc2ccccn12 (stereo not drawn) [Compound (2)] | 163 | 
3 | O=C(NCCN1C(=O)NC(Cc2c[nH]c3c(Cl)cccc23)C1=O)c1cccc(C#Cc2cnc3cccnn23)c1 (stereo not drawn) [Compound (3)] | 364 | 
4 | Cc1ccc(C(=O)NCCN2C(=O)NC(Cc3c[nH]c4c(Cl)cccc34)C2=O)cc1CCc1cnc2cccnn12 (stereo not drawn) [Compound (8)] | 1770 | 
5 | Cc1ccc(CCCCN2C(=O)NC(Cc3c[nH]c4c(Cl)cccc34)C2=O)cc1C#Cc1cnc2cccnn12 (stereo not drawn) [Compound (29)] | 9.9 | 
6 | Cc1ccc(SCCN2C(=O)NC(Cc3c[nH]c4c(Cl)cccc34)C2=O)cc1C#Cc1cnc2cccnn12 (stereo not drawn) [Compound (30)] | 80.4 | 
7 | Cc1ccc(CCN2C(=O)NC(Cc3c[nH]c4c(Cl)cccc34)C2=O)cc1C#Cc1cnc2cccnn12 (stereo not drawn) [Compound (31)] | 136 | 
8 | Cc1ccc(OCCN2C(=O)NC(Cc3c[nH]c4c(Cl)cccc34)C2=O)cc1C#Cc1cnc2cccnn12 (stereo not drawn) [Compound (32)] | 134 | 
9 | Cc1ccc(CCCN2C(=O)NC(Cc3c[nH]c4c(Cl)cccc34)C2=O)cc1C#Cc1cnc2cccnn12 (stereo not drawn) [Compound (33)] | 74.4 | 
10 | Cc1ccc(CCCCCN2C(=O)NC(Cc3c[nH]c4c(Cl)cccc34)C2=O)cc1C#Cc1cnc2cccnn12 (stereo not drawn) [Compound (34)] | 185 | 
11 | Cc1cc(CCCCN2C(=O)NC(Cc3c[nH]c4c(Cl)cccc34)C2=O)ccc1C#Cc1cnc2cccnn12 (stereo not drawn) [Compound (35)] | 299 | 
12 | CNC(=O)c1cc(Oc2ccc(NC(=O)CCN3C(=O)NC(Cc4c[nH]c5c(Cl)cccc45)C3=O)c(F)c2)ccn1 (stereo not drawn) [Compound (36)] | 19300 | 
13 | CNC(=O)c1cc(Oc2ccc(CCCN3C(=O)NC(Cc4c[nH]c5c(Cl)cccc45)C3=O)c(F)c2)ccn1 (stereo not drawn) [Compound (37)] | 24500 | 
14 | CNC(=O)c1cc(Oc2ccc(NC(=O)N3C(=O)NC(Cc4c[nH]c5c(Cl)cccc45)C3=O)c(F)c2)ccn1 (stereo not drawn) [Compound (38)] |  | INACTIVE
15 | O=C1NC(Cc2c[nH]c3c(Cl)cccc23)C(=O)N1CCC#Cc1cnc2cccnn12 (stereo not drawn) [Compound (41)] | 745 | 
